“And” between values parts separate entries of the source, which are not always exact repeats. Equal entries are not always repeated. Inconclusive results and toxic doses are left out. Cut-off read from the data, not from the text of the source: active = T/C of 150% or more; inactive = T/C below 125%.
System: L1210 leukemia ip in BDF1 mice, survival T/C
Test: NCI In Vivo Anticancer Drug Screen. Data for tumor model L1210 Leukemia (intraperitoneal) in B6D2F1 (BDF1) mice
Conditions: endpoint: mean survival time, higher = longer survival
In short: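 Read-out is survival time, reported as the treated-group measurement over the vehicle-control measurement.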

[1] = dose: 50.0 mg/kg/injection, schedule: Q04DX002 (ip), vehicle: Klucel (hydroxypropylcellulose) (HPC)
[2] = dose: 100.0 mg/kg/injection, schedule: Q01DX009 (ip), vehicle: Klucel (hydroxypropylcellulose) (HPC)
[3] = dose: 100.0 mg/kg/injection, schedule: Q04DX002 (ip), vehicle: Klucel (hydroxypropylcellulose) (HPC)
[4] = dose: 200.0 mg/kg/injection, schedule: Q01DX009 (ip), vehicle: Klucel (hydroxypropylcellulose) (HPC)
[5] = dose: 200.0 mg/kg/injection, schedule: Q04DX002 (ip), vehicle: Klucel (hydroxypropylcellulose) (HPC)
[6] = dose: 400.0 mg/kg/injection, schedule: Q01DX009 (ip), vehicle: Klucel (hydroxypropylcellulose) (HPC)
[7] = dose: 100.0 mg/kg/injection, schedule: Q04DX003 (ip), vehicle: saline
[8] = dose: 400.0 mg/kg/injection, schedule: Q04DX002 (ip), vehicle: Klucel (hydroxypropylcellulose) (HPC)
[9] = dose: 200.0 mg/kg/injection, schedule: Q04DX003 (ip), vehicle: saline

Measured: T/C

O=C(Nc1ccc(C2=NCCN2)cc1)c1ccc(C(=O)Nc2ccc(C3=NCCN3)cc2)c(NC(=O)c2ccc(C(=O)Nc3cc(C(=O)Nc4ccc(C5=NCCN5)cc4)ccc3C(=O)Nc3ccc(C4=NCCN4)cc3)cc2)c1
inactive: dose: 2.5 mg/kg/injection, schedule: Q01DX Z (ip), vehicle: methylcellulose (MC) 120 % of control | dose: 3.1 mg/kg/injection, schedule: Q01DX Z (ip), vehicle: carboxymethylcellulose (CMC) 104 % of control | dose: 6.2 mg/kg/injection, schedule: Q01DX Z (ip), vehicle: carboxymethylcellulose (CMC) 107 % of control | dose: 6.25 mg/kg/injection, schedule: Q#A X Z (ip), vehicle: carboxymethylcellulose (CMC) 108 % of control | dose: 12.5 mg/kg/injection, schedule: Q01DX Z (ip), vehicle: carboxymethylcellulose (CMC) 119 % of control | dose: 12.5 mg/kg/injection, schedule: Q01DX Z (sc), vehicle: carboxymethylcellulose (CMC) 98 % of control | dose: 22.0 mg/kg/injection, schedule: Q01DX015 (ip), vehicle: carboxymethylcellulose (CMC) 116 % of control | dose: 25.0 mg/kg/injection, schedule: Q01DX004 (im), vehicle: olive oil, sesame oil, peanut oil 97 % of control | dose: 25.0 mg/kg/injection, schedule: Q01DX Z (sc), vehicle: carboxymethylcellulose (CMC) 122 % of control | dose: 33.0 mg/kg/injection, schedule: Q01DX015 (ip), vehicle: carboxymethylcellulose (CMC) 106 % of control | dose: 50.0 mg/kg/injection, schedule: Q01DX004 (im), vehicle: olive oil, sesame oil, peanut oil 95 % of control | dose: 50.0 mg/kg/injection, schedule: Q01DX015 (ip), vehicle: carboxymethylcellulose (CMC) 110 % of control | dose: 50.0 mg/kg/injection, schedule: Q01DX Z (oral), vehicle: carboxymethylcellulose (CMC) 95 % of control | dose: 62.5 mg/kg/injection, schedule: Q## X010 (oral), vehicle: saline 98 % of control | dose: 100.0 mg/kg/injection, schedule: Q01DX004 (im), vehicle: olive oil, sesame oil, peanut oil 95 % of control | dose: 100.0 mg/kg/injection, schedule: Q01DX Z (oral), vehicle: carboxymethylcellulose (CMC) 93 % of control | dose: 192.0 mg/kg/injection, schedule: Q01DX001 (ip), vehicle: carboxymethylcellulose (CMC) 97 % of control | dose: 192.0 mg/kg/injection, schedule: Q01DX001 (ip), vehicle: other 100 % of control | dose: 200.0 mg/kg/injection, schedule: Q01DX004 (im), vehicle: olive oil, sesame oil, peanut oil 98 % of control | dose: 200.0 mg/kg/injection, schedule: Q01DX Z (oral), vehicle: carboxymethylcellulose (CMC) 97 % of control | dose: 250.0 mg/kg/injection, schedule: Q## X010 (oral), vehicle: saline 101 % of control | dose: 281.0 mg/kg/injection, schedule: Q01DX001 (ip), vehicle: carboxymethylcellulose (CMC) 97 % of control | dose: 281.0 mg/kg/injection, schedule: Q01DX001 (ip), vehicle: other 103 % of control | dose: 400.0 mg/kg/injection, schedule: Q01DX Z (oral), vehicle: carboxymethylcellulose (CMC) 104 % of control | dose: 422.0 mg/kg/injection, schedule: Q01DX001 (ip), vehicle: carboxymethylcellulose (CMC) 95 % of control | dose: 422.0 mg/kg/injection, schedule: Q01DX001 (ip), vehicle: other 106 % of control | dose: 500.0 mg/kg/injection, schedule: Q## X010 (oral), vehicle: saline 104 % of control | dose: 640.0 mg/kg/injection, schedule: Q01DX001 (ip), vehicle: carboxymethylcellulose (CMC) 104 % of control | dose: 640.0 mg/kg/injection, schedule: Q01DX001 (ip), vehicle: other 104 % of control | dose: 800.0 mg/kg/injection, schedule: Q01DX Z (oral), vehicle: carboxymethylcellulose (CMC) 89 % of control | dose: 960.0 mg/kg/injection, schedule: Q01DX001 (ip), vehicle: carboxymethylcellulose (CMC) 106 % of control and 120 % of control | dose: 1440.0 mg/kg/injection, schedule: Q01DX001 (ip), vehicle: carboxymethylcellulose (CMC) 116 % of control | dose: 1440.0 mg/kg/injection, schedule: Q01DX001 (ip), vehicle: other 120 % of control | dose: 2160.0 mg/kg/injection, schedule: Q01DX001 (ip), vehicle: carboxymethylcellulose (CMC) 121 % of control | dose: 3240.0 mg/kg/injection, schedule: Q01DX001 (ip), vehicle: carboxymethylcellulose (CMC) 123 % of control
active: dose: 10.0 mg/kg/injection, schedule: Q01DX Z (ip), vehicle: methylcellulose (MC) 157 % of control | dose: 12.5 mg/kg/injection, schedule: Q#A X Z (ip), vehicle: carboxymethylcellulose (CMC) 192 % of control | dose: 25.0 mg/kg/injection, schedule: Q01DX Z (ip), vehicle: carboxymethylcellulose (CMC) 175 % of control | dose: 25.0 mg/kg/injection, schedule: Q#A X Z (ip), vehicle: carboxymethylcellulose (CMC) 289 % of control | dose: 50.0 mg/kg/injection, schedule: Q01DX Z (ip), vehicle: carboxymethylcellulose (CMC) 302 % of control | dose: 50.0 mg/kg/injection, schedule: Q01DX Z (sc), vehicle: carboxymethylcellulose (CMC) 201 % of control | dose: 50.0 mg/kg/injection, schedule: Q#A X Z (ip), vehicle: carboxymethylcellulose (CMC) 194 % of control | dose: 60.0 mg/kg/injection, schedule: Q01DX Z (ip), vehicle: methylcellulose (MC) 158 % of control and 359 % of control | dose: 75.0 mg/kg/injection, schedule: Q03DX Z (ip), vehicle: carboxymethylcellulose (CMC) 206 % of control | dose: 100.0 mg/kg/injection, schedule: Q01DX Z (ip), vehicle: carboxymethylcellulose (CMC) 195 % of control | dose: 100.0 mg/kg/injection, schedule: Q01DX Z (sc), vehicle: carboxymethylcellulose (CMC) 208 % of control | dose: 112.5 mg/kg/injection, schedule: Q01DX015 (ip), vehicle: carboxymethylcellulose (CMC) 169 % of control | dose: 120.0 mg/kg/injection, schedule: Q01DX Z (ip), vehicle: methylcellulose (MC) 314 % of control | dose: 150.0 mg/kg/injection, schedule: Q03DX Z (ip), vehicle: carboxymethylcellulose (CMC) 284 % of control | dose: 175.0 mg/kg/injection, schedule: Q07DX Z (ip), vehicle: carboxymethylcellulose (CMC) 293 % of control | dose: 200.0 mg/kg/injection, schedule: Q01DX Z (sc), vehicle: carboxymethylcellulose (CMC) 227 % of control | dose: 240.0 mg/kg/injection, schedule: Q01DX Z (ip), vehicle: methylcellulose (MC) 210 % of control | dose: 300.0 mg/kg/injection, schedule: Q03DX Z (ip), vehicle: carboxymethylcellulose (CMC) 190 % of control | dose: 350.0 mg/kg/injection, schedule: Q07DX Z (ip), vehicle: carboxymethylcellulose (CMC) 278 % of control | dose: 700.0 mg/kg/injection, schedule: Q07DX Z (ip), vehicle: carboxymethylcellulose (CMC) 185 % of control | dose: 3240.0 mg/kg/injection, schedule: Q01DX001 (ip), vehicle: other 191 % of control

CC(C)=CCC1(CC=C(C)C)C(=O)N(c2ccccc2)N(c2ccccc2)C1=O
inactive: [1] 93 % of control | [2] 93 % of control | [3] 101 % of control | [4] 98 % of control | [5] 97 % of control | [6] 90 % of control

c1ccc2c(c1)CCN(CCCCN1CCc3ccccc3C1)C2
inactive: dose: 25.0 mg/kg/injection, schedule: Q04DX003 (ip), vehicle: saline 100 % of control | dose: 50.0 mg/kg/injection, schedule: Q04DX003 (ip), vehicle: saline 102 % of control | [7] 96 % of control and 97 % of control

CCCCCCC(=O)CCCCCC/C=C/CC(O)C(O)C(N)(CO)C(=O)O (stereo unspecified)
inactive: dose: 0.78 mg/kg/injection, schedule: Q04DX002 (ip), vehicle: saline with Tween-80 104 % of control | dose: 1.56 mg/kg/injection, schedule: Q04DX002 (ip), vehicle: saline with Tween-80 104 % of control | dose: 3.13 mg/kg/injection, schedule: Q04DX002 (ip), vehicle: saline with Tween-80 100 % of control

N#Cc1ccc(OCCCCCOc2ccc(C#N)cc2I)c(I)c1
inactive: dose: 25.0 mg/kg/injection, schedule: Q04DX002 (ip), vehicle: Klucel (hydroxypropylcellulose) (HPC) 100 % of control | [1] 100 % of control | [3] 95 % of control and 97 % of control | [5] 89 % of control | [8] 94 % of control

Cc1ccc2nsnc2c1[N+](=O)[O-]
inactive: [3] 107 % of control | [5] 118 % of control | [8] 102 % of control

NC(=O)Nc1ccc(Br)cc1Br
inactive: [3] 102 % of control | [5] 94 % of control

CCCc1c(N)nc(=S)[nH]c1C(=O)O
inactive: [2] 102 % of control | [7] 96 % of control | [4] 97 % of control | [9] 119 % of control | [6] 94 % of control

CSc1nc(N)nc2c1ncn2CCCl
inactive: [7] 103 % of control | [9] 96 % of control | dose: 400.0 mg/kg/injection, schedule: Q04DX003 (ip), vehicle: saline 97 % of control

Reference: PubChem BioAssay AID248 (DTP/NCI, 2004)
